Where a SMILES comes first, the peptide text is derived from it. The star is where a group is joined. Myristoyl = CCCCCCCCCCCCCC(=O)*
Tests used:
[1] = tested on: CD44^hiCD24^lo CSCs in MDA-MB-231 cells; test: FACS analysis of CD44^hiCD24^lo cancer stem cells in MDA-MB-231 cells treated with P1 analogues; type: cell-based, human; details: 50 μM peptide, 48 hours; for CD44^hiCD24^lo CSCs (%) / COI, Live Single CD44^hiCD24^lo CSCs (Cell Count): n = 1; for Average Inhibition of CSCs (%) / CD44^hiCD24^lo CSCs (%) Repeat 1 / CD44^hiCD24^lo CSCs (%) Repeat 2 / CD44^hiCD24^lo CSCs (%) Repeat 3: n = 3
Protocol: Analogues of P1 (Table 6) were designed and synthesized in accordance with the procedure of Example 5. The ability of these analogues to inhibit cancer stem cells was determined using FACS analysis on MDA-MB-231 cells, which constitutively contain approximately 90% CD44^hiCD24^lo cancer stem cells, treated with the peptides.
(§1) Non-adherent cells were removed during the washing steps.

MDA-MB-231 cells = type: cell-based, human; details: 50 μM peptide, 48 hours, n = 1
Description: as §1
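Throughout, for COI, Live Single Cells (Cell Count): live means Hoechst-negative events among single cells.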

SMILES	Inhibition of CSCs (%) Repeat 1 [1] [%]	Inhibition of CSCs (%) Repeat 2 [1] [%]	Inhibition of CSCs (%) Repeat 3 [1] [%]	CD44^hiCD24^lo CSCs (%) [1] [%]	COI, Live Single CD44^hiCD24^lo CSCs (Cell Count) [1]	Average Inhibition of CSCs (%) [1] [%]	CD44^hiCD24^lo CSCs (%) Repeat 1 [1] [%]	CD44^hiCD24^lo CSCs (%) Repeat 2 [1] [%]	CD44^hiCD24^lo CSCs (%) Repeat 3 [1] [%]	COI (Cell Count) (MDA-MB-231 cells)	COI, Live Single Cells (Cell Count) (MDA-MB-231 cells)	COI, Single (Cell Count) (MDA-MB-231 cells)	Total Cell Count (MDA-MB-231 cells)
CCCCCCCCCCCCCC(=O)N[C@@H](CC(C)C)C(=O)N[C@H](C(=O)N[C@@H](Cc1ccccc1)C(=O)N[C@H](C(=O)N[C@@H](Cc1ccccc1)C(=O)N[C@@H](CCCNC(=N)N)C(=O)N[C@@H](CC(C)C)C(=O)N[C@@H](CCCNC(=N)N)C(=O)N[C@@H](CCCCN)C(=O)NCC(=O)N[C@@H](CCCNC(=N)N)C(=O)N[C@@H](CCSC)C(=O)N[C@@H](CCSC)C(=O)N[C@@H](CC(=O)O)C(=O)N[C@@H](CCC(=O)O)C(=O)N[C@@H](CCCCN)C(=O)N[C@@H](CCCCN)C(N)=O)[C@@H](C)CC)[C@@H](C)O [Peptide 2853838, Myristoyl-LTFIFRLRKGRMMDEKK-NH2] (Myristoyl-LTFIFRLRKGRMMDEKK-NH2)	86.55	81.44	86.40	10.16	31	84.80	12.05	16.65	12.20	408	305	333	888
CCCCCCCCCCCCCC(=O)N[C@@H](CC(C)C)C(=O)N[C@H](C(=O)N[C@@H](Cc1ccccc1)C(=O)N[C@H](C(=O)N[C@@H](Cc1ccccc1)C(=O)N[C@@H](CCCNC(=N)N)C(=O)N[C@@H](CC(C)C)C(=O)N[C@@H](CCCNC(=N)N)C(=O)N[C@@H](CCCCN)C(=O)NCC(=O)N[C@@H](CCCNC(=N)N)C(=O)N[C@@H](CCSC)C(=O)N[C@@H](CCSC)C(=O)N[C@H](C(=O)N[C@H](C(=O)N[C@@H](CCCCN)C(=O)N[C@@H](CCCCN)C(N)=O)C(C)C)C(C)C)[C@@H](C)CC)[C@@H](C)O [Peptide 2853837, Myristoyl-LTFIFRLRKGRMMVVKK-NH2] (Myristoyl-LTFIFRLRKGRMMVVKK-NH2)	93.82	93.76	88.86	5.53	13	92.15	5.54	5.59	10.00	452	235	364	4805
CCCCCCCCCCCCCC(=O)N[C@@H](CC(C)C)C(=O)N[C@@H](CC(C)C)C(=O)N[C@@H](Cc1ccccc1)C(=O)N[C@H](C(=O)N[C@@H](Cc1ccccc1)C(=O)N[C@@H](CCCNC(=N)N)C(=O)N[C@@H](CC(C)C)C(=O)N[C@@H](CCCNC(=N)N)C(=O)N[C@@H](CCCCN)C(=O)NCC(=O)N[C@@H](CCCNC(=N)N)C(=O)N[C@@H](CCSC)C(=O)N[C@@H](CCSC)C(=O)N[C@@H](CC(=O)O)C(=O)N[C@H](C(=O)N[C@@H](CCCCN)C(=O)N[C@@H](CCCCN)C(N)=O)C(C)C)[C@@H](C)CC [Peptide 2853806, Myristoyl-LLFIFRLRKGRMMDVKK-NH2] (Myristoyl-LLFIFRLRKGRMMDVKK-NH2)	4.36	9.44	10.85	91.86	3361	8.22	85.71	81.25	80.00	3997	3659	3696	4893
CCCCCCCCCCCCCC(=O)N[C@@H](CC(C)C)C(=O)N[C@H](C(=O)N[C@@H](Cc1ccccc1)C(=O)N[C@H](C(=O)N[C@@H](Cc1ccccc1)C(=O)N[C@@H](CCCNC(=N)N)C(=O)N[C@@H](CC(C)C)C(=O)N[C@@H](CCCNC(=N)N)C(=O)N[C@@H](CCCCN)C(=O)NCC(=O)N[C@@H](CCCNC(=N)N)C(=O)N[C@@H](CCSC)C(=O)N[C@@H](CCSC)C(=O)N[C@@H](CC(=O)O)C(=O)N[C@H](C(=O)N[C@@H](CCCCN)C(=O)N[C@@H](CC(C)C)C(N)=O)C(C)C)[C@@H](C)CC)[C@@H](C)O [Peptide 2853846, Myristoyl-LTFIFRLRKGRMMDVKL-NH2] (Myristoyl-LTFIFRLRKGRMMDVKL-NH2)	61.79	63.60	62.39	27.88	87	62.59	34.25	32.66	33.75	370	312	330	10000
CCCCCCCCCCCCCC(=O)N[C@@H](CCC(=O)O)C(=O)N[C@H](C(=O)N[C@@H](Cc1ccccc1)C(=O)N[C@H](C(=O)N[C@@H](Cc1ccccc1)C(=O)N[C@@H](CCCNC(=N)N)C(=O)N[C@@H](CC(C)C)C(=O)N[C@@H](CCCNC(=N)N)C(=O)N[C@@H](CCCCN)C(=O)NCC(=O)N[C@@H](CCCNC(=N)N)C(=O)N[C@@H](CCSC)C(=O)N[C@@H](CCSC)C(=O)N[C@@H](CC(=O)O)C(=O)N[C@H](C(=O)N[C@@H](CCCCN)C(=O)N[C@@H](CCCCN)C(N)=O)C(C)C)[C@@H](C)CC)[C@@H](C)O [Peptide 2853802, Myristoyl-ETFIFRLRKGRMMDVKK-NH2] (Myristoyl-ETFIFRLRKGRMMDVKK-NH2)	42.88	46.07	49.94	48.71	3133	46.30	51.19	48.38	44.92	7612	6432	7095	9672
